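GI50 = concentration required for 50% inhibition of growth. At the TGI there is no net growth.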
Experiments:
Assay in all cases: NCI anticancer screen, dose series, 384-well format
[1] = test system: NCI-H23 lung
[2] = test system: NCI-H522 lung
[3] = test system: HOP-92 NSCLC
[4] = test system: RPMI-8226 leukemia
[5] = test system: UACC-62 melanoma
[6] = test system: HOP-62 NSCLC
[7] = test system: M14 melanoma
[8] = test system: DU-145 prostate
[9] = test system: UACC-257 melanoma
[10] = test system: LOX IMVI melanoma
[11] = test system: HT29 colon
[12] = test system: SK-MEL-2 melanoma
[13] = test system: SW-620 colon
[14] = test system: CAKI-1 renal
[15] = test system: TK-10 renal
[16] = test system: SN12C renal
[17] = test system: SF-539 CNS
[18] = test system: RXF 393 renal
[19] = test system: U251 glioblastoma
[20] = test system: OVCAR-8 ovarian
[21] = test system: HCT-15 colon
[22] = test system: SF-295 CNS
[23] = test system: COLO 205 colon
[24] = test system: SK-MEL-28 melanoma
[25] = test system: OVCAR-3 ovarian
[26] = test system: MOLT-4 leukemia
[27] = test system: A498 renal
[28] = test system: HL-60(TB) leukemia
[29] = test system: A549 NSCLC

**Q.** How did the GI50 [1] turn out when `COc1cccc2c1C(=O)c1c(O)c3c(c(O)c1C2=O)C[C@@](O)(/C(CO)=N/NC(=O)CCCCCN1C(=O)C=CC1=O)C[C@@H]3O[C@H]1C[C@H](N)[C@H](O)[C@H](C)O1` was run?
**A.** 0.166 µM

**Q.** And the TGI [1]?
**A.** 0.381 µM

**Q.** And the GI50 [2]?
**A.** 0.0294 µM

**Q.** And the TGI [2]?
**A.** 0.148 µM

**Q.** And the GI50 [3]?
**A.** 0.037 µM

**Q.** And the TGI [3]?
**A.** 0.247 µM

**Q.** What about the TGI [4] of the same molecule?
**A.** 0.173 µM

**Q.** What about the GI50 [5] of the same molecule?
**A.** 0.0759 µM

**Q.** What about the TGI [5] of the same molecule?
**A.** 0.233 µM

**Q.** What about the GI50 [6] of the same molecule?
**A.** 0.103 µM

**Q.** What about the TGI [6] of the same molecule?
**A.** 0.273 µM

**Q.** And the GI50 [7]?
**A.** 0.0726 µM

**Q.** What about the TGI [7] of the same molecule?
**A.** 0.258 µM

**Q.** And the GI50 [8]?
**A.** 0.152 µM

**Q.** And the TGI [8]?
**A.** 0.365 µM

**Q.** And the GI50 [9]?
**A.** 0.18 µM

**Q.** And the TGI [9]?
**A.** 0.552 µM

**Q.** And the GI50 [10]?
**A.** 0.166 µM

**Q.** What about the TGI [10] of the same molecule?
**A.** 0.381 µM

**Q.** And the GI50 [11]?
**A.** 0.148 µM

**Q.** And the TGI [11]?
**A.** 0.78 µM

**Q.** And the GI50 [12]?
**A.** 0.101 µM

**Q.** And the TGI [12]?
**A.** 0.229 µM

**Q.** What about the GI50 [13] of the same molecule?
**A.** 0.0593 µM

**Q.** What about the TGI [13] of the same molecule?
**A.** 0.829 µM

**Q.** And the GI50 [14]?
**A.** 0.155 µM

**Q.** What about the TGI [14] of the same molecule?
**A.** 1.06 µM

**Q.** What about the GI50 [15] of the same molecule?
**A.** 0.225 µM

**Q.** What about the TGI [15] of the same molecule?
**A.** 1.04 µM

**Q.** What about the GI50 [16] of the same molecule?
**A.** 0.139 µM

**Q.** What about the TGI [16] of the same molecule?
**A.** 0.391 µM

**Q.** And the GI50 [17]?
**A.** 0.0387 µM

**Q.** And the TGI [17]?
**A.** 0.14 µM

**Q.** What about the GI50 [18] of the same molecule?
**A.** 0.0452 µM

**Q.** And the TGI [18]?
**A.** 0.228 µM

**Q.** What about the GI50 [19] of the same molecule?
**A.** 0.0504 µM

**Q.** And the TGI [19]?
**A.** 0.188 µM

**Q.** And the GI50 [20]?
**A.** 0.141 µM

**Q.** What about the TGI [20] of the same molecule?
**A.** 1.31 µM

**Q.** What about the GI50 [21] of the same molecule?
**A.** 0.47 µM

**Q.** What about the TGI [21] of the same molecule?
**A.** 3.11 µM

**Q.** And the GI50 [22]?
**A.** 0.154 µM

**Q.** What about the TGI [22] of the same molecule?
**A.** 0.47 µM

**Q.** What about the GI50 [23] of the same molecule?
**A.** 0.0366 µM

**Q.** What about the TGI [23] of the same molecule?
**A.** 0.183 µM

**Q.** And the GI50 [24]?
**A.** 0.126 µM

**Q.** And the TGI [24]?
**A.** 0.519 µM

**Q.** And the GI50 [25]?
**A.** 0.159 µM

**Q.** And the TGI [25]?
**A.** 0.686 µM

**Q.** What about the GI50 [26] of the same molecule?
**A.** 0.0109 µM

**Q.** What about the TGI [26] of the same molecule?
**A.** 0.023 µM

**Q.** What about the GI50 [27] of the same molecule?
**A.** 0.0958 µM

**Q.** And the TGI [27]?
**A.** 1.44 µM

**Q.** What about the GI50 [28] of the same molecule?
**A.** 0.0151 µM

**Q.** What about the TGI [28] of the same molecule?
**A.** 0.0294 µM

**Q.** What about the GI50 [29] of the same molecule?
**A.** 0.098 µM

From PubChem BioAssay (NCI)
